# Non-standard residues stand in square brackets, D forms with d. Residues, ends and D or L forms follow the SMILES beside them. NMeF = CN[C@@H](Cc1ccccc1)C(=O)O
# Target: T1, human NPFF2 (Homo sapiens, UniProt Q9Y5X5)
# T1 construct: purchased Perkin Elmer; host or cells: CHO-K1 cell membranes
# Assay: Competitive binding of 125I-1DMe to human NPFF2 receptor membranes
# Conditions: membranes of CHO-K1 cells overexpressing NPFF2, 0.1 nM radioligand, Cheng-Prusoff; mean ± SEM; SEM
# Experimental: CHO-K1 cells expressing the GPR10 receptor (Thermo Fisher Scientific Inc., Waltham, MA, USA) were grown according to the manufacturer's instructions. Saturation and competitive binding experiments were performed according to the methods of Motulsky and Neubig. […] The experiments were performed on plated cells that were incubated for 60 min at 25°C. Non-specific binding was determined using 10^−5 M PrRP31. The binding assays involving human NPFF2 receptor membranes obtained from Perkin Elmer were performed as described in [18].
# Data are presented as the means ± SEM. The competitive binding curves were plotted using GraphPad software (San Diego, CA, USA), and the best fits were compared for single-binding-site models (IC50 values were obtained from nonlinear regression analysis). Inhibition constants (Ki) were calculated from the IC50 values using the Cheng-Prusoff equation [23]. The concentration of the radioligand was 0.1 nM for cell membranes of CHO-K1 cells overexpressing NPFF2 and 0.03 nM for CHO-K1 cells overexpressing GPR10.
# T1 sequence (Q9Y5X5 whole entry): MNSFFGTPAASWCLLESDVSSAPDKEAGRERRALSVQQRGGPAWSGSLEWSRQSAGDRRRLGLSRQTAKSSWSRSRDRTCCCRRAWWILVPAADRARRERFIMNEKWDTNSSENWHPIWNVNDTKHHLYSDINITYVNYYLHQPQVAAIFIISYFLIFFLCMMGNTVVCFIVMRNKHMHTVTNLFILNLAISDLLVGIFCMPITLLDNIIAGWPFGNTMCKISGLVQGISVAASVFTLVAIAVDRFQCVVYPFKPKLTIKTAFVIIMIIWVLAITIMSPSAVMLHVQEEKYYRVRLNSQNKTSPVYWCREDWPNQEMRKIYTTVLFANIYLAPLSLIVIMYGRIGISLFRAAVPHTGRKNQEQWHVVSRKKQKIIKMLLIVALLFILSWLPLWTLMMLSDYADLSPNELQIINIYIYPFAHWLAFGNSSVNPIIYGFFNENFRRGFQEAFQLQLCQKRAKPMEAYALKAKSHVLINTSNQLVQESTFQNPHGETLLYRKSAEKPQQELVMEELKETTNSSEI
row,SMILES,Ki [nM]
1,"CC(C)C[C@H](NC(=O)[C@H](N)Cc1ccc(O)cc1)C(=O)N(C)[C@@H](Cc1ccccc1)C(=O)N[C@@H](CCC(N)=O)C(=O)N1CCC[C@H]1C(=O)N[C@@H](CCC(N)=O)C(=O)N[C@@H](CCCN=C(N)N)C(=O)N[C@@H](Cc1ccccc1)C(N)=O [1DMe, reference compound] (H-[dY]L[NMeF]QPQRF-NH2)",1.8 ± 0.54
2,"CC[C@H](C)[C@H](NC(=O)CNC(=O)[C@H](CCCNC(=N)N)NC(=O)[C@H](CO)NC(=O)[C@H](C)NC(=O)[C@H](Cc1ccc(O)cc1)NC(=O)[C@H](Cc1c[nH]c2ccccc12)NC(=O)[C@H](C)NC(=O)[C@@H]1CCCN1C(=O)[C@H](CC(N)=O)NC(=O)[C@@H](NC(=O)[C@H](CC(=O)O)NC(=O)[C@@H]1CCCN1C(=O)[C@@H](NC(=O)[C@H](CCCNC(=N)N)NC(=O)[C@@H](NC(=O)[C@H](CCC(=O)O)NC(=O)[C@H](CCSC)NC(=O)[C@H](CO)NC(=O)[C@H](Cc1c[nH]cn1)NC(=O)[C@H](CCCNC(=N)N)NC(=O)[C@H](Cc1c[nH]cn1)NC(=O)[C@@H](NC(=O)[C@H](CCCNC(=N)N)NC(=O)[C@@H](N)CO)[C@@H](C)O)[C@@H](C)CC)[C@@H](C)O)[C@@H](C)CC)C(=O)N[C@@H](CCCNC(=N)N)C(=O)N1CCC[C@H]1C(=O)N[C@H](C(=O)NCC(=O)N[C@@H](CCCNC(=N)N)C(=O)N[C@@H](Cc1ccccc1)C(N)=O)C(C)C [human PrRP31, reference compound]",50 ± 24.3

# Source: paper PMC5562305, “Impact of novel palmitoylated prolactin-releasing peptide analogs on metabolic changes in mice with diet-induced obesity” (PLoS ONE, 2017)
